Data on 21 compounds can be found in patent publication US11040112B2, “Lipids and lipid nanoparticle formulations for delivery of nucleic acids” (Acuitas Therapeutics, Inc., priority 2015, dated 2021).

The subject of data set [1] is luciferase expression in the liver. The data set can be described thus: Luciferase mRNA in vivo evaluation: luciferase expression in the liver after tail vein injection of FLuc mRNA lipid nanoparticles. The arrangement: species or system mice. To be noted: liver 4 hours after administration; for Liver Luc @ 0.3 mg/kg (ng luc/g liver): 0.3 mg mRNA/kg; for Liver Luc @ 1.0 mg/kg (ng luc/g liver): 1.0 mg mRNA/kg. As to the method:
Cationic lipid, DSPC, cholesterol and PEG-lipid were solubilized in ethanol at a molar ratio of 50:10:38.5:1.5 or 47.5:10:40.8:1.7. Lipid nanoparticles (LNP) were prepared at a total lipid to mRNA weight ratio of approximately 10:1 to 30:1. Briefly, the mRNA was diluted to 0.2 mg/mL in 10 to 50 mM citrate buffer, pH 4. Syringe pumps were used to mix the ethanolic lipid solution with the mRNA aqueous solution at a ratio of about 1:5 to 1:3 (vol/vol) with total flow rates above 15 ml/min. The ethanol was then removed and the external buffer replaced with PBS by dialysis. Finally, the lipid nanoparticles were filtered through a 0.2 μm pore sterile filter. Lipid nanoparticle particle size was approximately 55-95 nm diameter, and in some instances approximately 70-90 nm diameter as determined by quasi-elastic light scattering using a Malvern Zetasizer Nano ZS (Malvern, UK).
Studies were performed in 6-8 week old female C57BL/6 mice (Charles River) 8-10 week old CD-1 (Harlan) mice (Charles River) according to guidelines established by an institutional animal care committee (ACC) and the Canadian Council on Animal Care (CCAC). Varying doses of mRNA-lipid nanoparticle were systemically administered by tail vein injection and animals euthanized at a specific time point (e.g 4 hrs) post-administration. Liver and spleen were collected in pre-weighed tubes, weights determined, immediately snap frozen in liquid nitrogen and stored at −80° C. until processing for analysis.
For liver, approximately 50 mg was dissected for analyses in a 2 mL FastPrep tubes (MP Biomedicals, Solon Ohio). ¼″ ceramic sphere (MP Biomedicals) was added to each tube and 500 μL of Glo Lysis Buffer—GLB (Promega, Madison Wis.) equilibrated to room temperature was added to liver tissue. Liver tissues were homogenized with the FastPrep24 instrument (MP Biomedicals) at 2×6.0 m/s for 15 seconds. Homogenate was incubated at room temperature for 5 minutes prior to a 1:4 dilution in GLB and assessed using SteadyGlo Luciferase assay system (Promega). Specifically, 50 μL of diluted tissue homogenate was reacted with 50 μL of SteadyGlo substrate, shaken for 10 seconds followed by 5 minute incubation and then quantitated using a CentroXS^3 LB 960 luminometer (Berthold Technologies, Germany). The amount of protein assayed was determined by using the BCA protein assay kit (Pierce, Rockford Ill.). Relative luminescence units (RLU) were then normalized to total ug protein assayed. To convert RLU to ng luciferase a standard curve was generated with QuantiLum Recombinant Luciferase (Promega). Based in the data provided in FIG. 1, the four-hour time point was chosen for efficacy evaluation of the lipid formulations.
The FLuc mRNA (L-6107) from Trilink Biotechnologies will express a luciferase protein, originally isolated from the firefly, Photinus pyralis. FLuc is commonly used in mammalian cell culture to measure both gene expression and cell viability. It emits bioluminescence in the presence of the substrate, luciferin. This capped and polyadenylated mRNA is fully substituted with 5-methylcytidine and pseudouridine.
The cationic lipids shown in Table 2 have previously been tested with nucleic acids. For comparative purposes, these lipids were also used to formulate lipid nanoparticles containing the FLuc mRNA (L-6107) using an in line mixing method, as described in Example 1 and in PCT/US10/22614, which is hereby incorporated by reference in its entirety. […]

Data set [2] in a line: Determination of pKa of formulated lipids in lipid nanoparticles (TNS fluorescence assay). The format is physicochemical. To be noted: pKa of cationic lipid in LNP (cationic lipid/DSPC/cholesterol/PEG-lipid 50/10/38.5/1.5 mol %), pH of half-maximal intensity. How it is done:
As described elsewhere, the pKa of formulated cationic lipids is correlated with the effectiveness of LNPs for delivery of nucleic acids (see Jayaraman et al, Angewandte Chemie, International Edition (2012), 51(34), 8529-8533; Semple et al, Nature Biotechnology 28, 172-176 (2010)). The preferred range of pKa is ˜5 to ˜7. […] Lipid nanoparticles comprising of cationic lipid/DSPC/cholesterol/PEG-lipid (50/10/38.5/1.5 mol %) in PBS at a concentration of 0.4 mM total lipid are prepared using the in-line process as described in Example 1. TNS was prepared as a 100 μM stock solution in distilled water. Vesicles were diluted to 24 μM lipid in 2 mL of buffered solutions containing, 10 mM HEPES, 10 mM MES, 10 mM ammonium acetate, 130 mM NaCl, where the pH ranged from 2.5 to 11. An aliquot of the TNS solution was added to give a final concentration of 1 μM and following vortex mixing fluorescence intensity was measured at room temperature in a SLM Aminco Series 2 Luminescence Spectrophotometer using excitation and emission wavelengths of 321 nm and 445 nm. A sigmoidal best fit analysis was applied to the fluorescence data and the pKa was measured as the pH giving rise to half-maximal fluorescence intensity (see FIG. 2).

[3] abbreviates: Lipid Ratio A: 50% cationic lipid/10% DSPC/38.5% cholesterol/1.5% PEG lipid (PEG-DMA).
Setting [4] is: Lipid Ratio B: 47.5% cationic lipid/10% DSPC/40.8% cholesterol/1.7% PEG lipid.

`CCCCCCCCC(CCCCCC)C(=O)OCCCCCCN(CCO)CCCCCCOC(=O)C(CCCCCC)CCCCCCCC` (stereo not drawn) [Compound 1]: in data set [1] (setting [3]), the “Liver Luc @ 0.3 mg/kg (ng luc/g liver)” value amounted to 467 ± 72 ng luc/g liver and the “Liver Luc @ 1.0 mg/kg (ng luc/g liver)” value is on record as 3780 ± 210 ng luc/g liver. In addition, the pKa in data set [2] was 5.89.
Taken in the same sequence, the figures for `CCCCCCCCC(CCCCCC)C(=O)OCCCCCCN(CCCO)CCCCCCOC(=O)C(CCCCCC)CCCCCCCC` (stereo not drawn) [Compound 2] were 1195 ± 245 ng luc/g liver, 10059 ± 3833 ng luc/g liver and 6.05.
In the case of `CCCCCCCCC(CCCCCC)C(=O)OCCCCCCN(CCCCO)CCCCCCOC(=O)C(CCCCCC)CCCCCCCC` (stereo not drawn) [Compound 3], in data set [1] (setting [3]), the “Liver Luc @ 0.3 mg/kg (ng luc/g liver)” value was 1275 ± 410 ng luc/g liver and the “Liver Luc @ 1.0 mg/kg (ng luc/g liver)” value came to 10643 ± 1858 ng luc/g liver. Moreover, the pKa in data set [2] was found to be 6.09.
In the case of `CCCCCCCCC(CCCCCC)C(=O)OCCCCN(CCCCO)CCCCOC(=O)C(CCCCCC)CCCCCCCC` (stereo not drawn) [Compound 4], in data set [1] (setting [3]), the “Liver Luc @ 0.3 mg/kg (ng luc/g liver)” value stood at 378 ± 82 ng luc/g liver and the “Liver Luc @ 1.0 mg/kg (ng luc/g liver)” value worked out at 1952 ± 940 ng luc/g liver. Moreover, the pKa in data set [2] worked out at 5.6.
For `CCCCCCCCC(CCCCCC)C(=O)OCCCCN(CCCO)CCCCOC(=O)C(CCCCCC)CCCCCCCC` (stereo not drawn) [Compound 5] the same measures were 183 ± 45 ng luc/g liver, 713 ± 298 ng luc/g liver and 5.59.
For `CCCCCCCCC(CCCCCC)C(=O)OCCCCN(CCO)CCCCOC(=O)C(CCCCCC)CCCCCCCC` (stereo not drawn) [Compound 6] the same measures were 122 ± 49 ng luc/g liver, 520 ± 365 ng luc/g liver and 5.42.
Taken in the same sequence, the figures for `CCCCCCCCC(CCCCCC)C(=O)OCCCCCCN(CCCCCO)CCCCCCOC(=O)C(CCCCCC)CCCCCCCC` (stereo not drawn) [Compound 7] were 1158 ± 136 ng luc/g liver, 8406 ± 2335 ng luc/g liver and 6.11.
For the compound `CCCCCCCCC(CCCCCC)C(=O)OCCCCCCN(CCCCCCO)CCCCCCOC(=O)C(CCCCCC)CCCCCCCC` (stereo not drawn) [Compound 8], in data set [1] (setting [3]), the “Liver Luc @ 0.3 mg/kg (ng luc/g liver)” value worked out at 1467 ± 943 ng luc/g liver and the “Liver Luc @ 1.0 mg/kg (ng luc/g liver)” value amounted to 7230 ± 2290 ng luc/g liver. For the same compound, the pKa in data set [2] was 5.84.
For `CCCCCCCCC(CCCCCC)COC(=O)CCCCN(CCCCO)CCCCC(=O)OCC(CCCCCC)CCCCCCCC` (stereo not drawn) [Compound 15] the same measures were 247 ± 25 ng luc/g liver, 1633 ± 449 ng luc/g liver and 6.14.
Turning to `CCCCCCCCC(CCCCCC)COC(=O)CCCCCN(CCCO)CCCCCC(=O)OCC(CCCCCC)CCCCCCCC` (stereo not drawn) [Compound 16], in data set [1] (setting [3]), the “Liver Luc @ 0.3 mg/kg (ng luc/g liver)” value worked out at 344 ± 133 ng luc/g liver and the “Liver Luc @ 1.0 mg/kg (ng luc/g liver)” value was 2633 ± 1140 ng luc/g liver. In data set [2], this compound came in with a pKa of 6.31.
Taken in the same sequence, the figures for `CCCCCCCCC(CCCCCC)COC(=O)CCCCCN(CCCCO)CCCCCC(=O)OCC(CCCCCC)CCCCCCCC` (stereo not drawn) [Compound 17] were 275 ± 139 ng luc/g liver, 1554 ± 761 ng luc/g liver and 6.28.
For `CCCCCCCCC(CCCCCC)COC(=O)CCCCCCCN(CCCCO)CCCCCCCC(=O)OCC(CCCCCC)CCCCCCCC` (stereo not drawn) [Compound 20], in data set [1] (setting [4]), the “Liver Luc @ 0.3 mg/kg (ng luc/g liver)” value came to 691 ± 150 ng luc/g liver and the “Liver Luc @ 1.0 mg/kg (ng luc/g liver)” value is reported as 4279 ± 2226 ng luc/g liver. Besides, the pKa in data set [2] came to 6.36.
With `CCCCCCCCC(CCCCCC)C(=O)OCCCCCCCCCN(CCCCO)CCCCCCCCCOC(=O)C(CCCCCC)CCCCCCCC` (stereo not drawn) [Compound 22], in data set [1] (setting [3]), the “Liver Luc @ 0.3 mg/kg (ng luc/g liver)” value turned out to be 660 ± 184 ng luc/g liver and the “Liver Luc @ 1.0 mg/kg (ng luc/g liver)” value is given as 7533 ± 4499 ng luc/g liver. This compound also came in with a pKa in data set [2] of 6.1.
Regarding `CCCCCCCCC(CCCCCC)C(=O)OCCCCCCCCCCCCN(CCCCO)CCCCCCCCCCCCOC(=O)C(CCCCCC)CCCCCCCC` (stereo not drawn) [Compound 23], in data set [1] (setting [3]), the “Liver Luc @ 0.3 mg/kg (ng luc/g liver)” value was found to be 137 ± 51 ng luc/g liver and the “Liver Luc @ 1.0 mg/kg (ng luc/g liver)” value came to 487 ± 209 ng luc/g liver. Also, the pKa in data set [2] is 5.98.
Turning to `CCCCCCC(CCCC)C(=O)OCCCCCCCCCN(CCCCO)CCCCCCCCCOC(=O)C(CCCC)CCCCCC` (stereo not drawn) [Compound 25], in data set [1] (setting [3]), the “Liver Luc @ 0.3 mg/kg (ng luc/g liver)” value is reported as 1648 ± 534 ng luc/g liver and the “Liver Luc @ 1.0 mg/kg (ng luc/g liver)” value was found to be 13880 ± 5083 ng luc/g liver. Further, the pKa in data set [2] is 6.22.
For `CCCCCCCCCCC(CCCCCCCC)C(=O)OCCCCCCN(CCCCO)CCCCCCOC(=O)C(CCCCCCCC)CCCCCCCCCC` (stereo not drawn) [Compound 26] the same measures were 1143 ± 782 ng luc/g liver, 1238 ± 1686 ng luc/g liver and 5.84.
For `CCCCCCCCCCCCC(CCCCCCCCCC)C(=O)OCCCCCCN(CCCCO)CCCCCCOC(=O)C(CCCCCCCCCC)CCCCCCCCCCCC` (stereo not drawn) [Compound 27] the same measures were 110 ± 42 ng luc/g liver, 1088 ± 802 ng luc/g liver and 5.77.
For `CCCCCCCCC(CCCCCC)C(=O)OCCCCCCN(CCCCCCOC(=O)C(CCCCCC)CCCCCCCC)CC(O)CO` (stereo not drawn) [Compound 30] the same measures were 49 ± 17 ng luc/g liver, 237 ± 92 ng luc/g liver and 6.09.
Take `CCCCCCCCCCC(CCCCCCCC)C(=O)OCCCCCCN(CCCO)CCCCCCOC(=O)C(CCCCCCCC)CCCCCCCCCC` (stereo not drawn) [Compound 37]: in data set [1] (setting [3]), the “Liver Luc @ 0.3 mg/kg (ng luc/g liver)” value was found to be 1244 ± 907 ng luc/g liver and the “Liver Luc @ 1.0 mg/kg (ng luc/g liver)” value amounted to 2035 ± 498 ng luc/g liver. This compound displayed a pKa in data set [2] of 5.89.
Taken in the same sequence, the figures for `CCCCCCCCC(CCCCCC)C(=O)OCCCCCCCCCCCCN(CCCO)CCCCCCCCCCCCOC(=O)C(CCCCCC)CCCCCCCC` (stereo not drawn) [Compound 38] were 60 ± 5 ng luc/g liver, 365 ± 181 ng luc/g liver and 6.1.
For the compound `CCCCCCCCCCCCC(CCCCCCCCCC)C(=O)OCCCCCCN(CCCO)CCCCCCOC(=O)C(CCCCCCCCCC)CCCCCCCCCCCC` (stereo not drawn) [Compound 44], in data set [1] (setting [4]), the “Liver Luc @ 0.3 mg/kg (ng luc/g liver)” value came to 23 ± 11 ng luc/g liver and the “Liver Luc @ 1.0 mg/kg (ng luc/g liver)” value came out at 342 ± 229 ng luc/g liver. In data set [2], this compound had a pKa of 5.79.
